Experimental data as given in US20150224164A1, “TREATMENT OF AUTISM SPECTRUM DISORDERS USING GLYCYL-L-2-METHYLPROLYL-L-GLUMATIC ACID” (Neuren Pharmaceuticals Limited, priority 2013, published 2015).
Where a SMILES comes first, the peptide text is derived from it.

Experiments:
MeCP2 deficient mice = system: MeCP2 deficient mice
Description: We treated hemizygous MeCP2(1lox) male mice with 20 mg/kg/day of G-2-MePE or saline, (0.01% BSA, n=15 per group in survival experiment and n=20 in the LTP experiment). The treatments were administered intraperitoneally from 4 weeks after birth. For the survival experiments the treatment was maintained through the course of the experiment. For the LTP experiment the mice were treated until week 9 when they were used for slice preparation.
MeCP2 deficient mutant mice develop RTT symptoms at about 4-6 weeks of age and die between 10-12 weeks (Chen et al., 2001. Nat Genet 27: 327-331). We compared the survival of the wild type controls and the MeCP2 deficient animals in vehicle- and G-2-MePE-treated groups. Survival was measured weekly from start of treatment (4 weeks) and used to produce Kaplan-Meier survival curves to show the proportion of mice that survived (y axis) at each weekly interval (x axis) (see FIG. 22).

[1] = system: PCNA positive cells in the subventricular zone (SVZ); experiment: Neuroblast proliferation, PCNA positive cells in subventricular zone; assay type: in vivo, rat; settings: 3 days
Description: To carry out these studies, tissues were fixed and embedded in paraffin and sections obtained using standard methods. Coronal sections (6 μm) containing the level of the hippocampus were cut and mounted on chrome-alum-coated slides for staining. The sections were deparaffinized in xylene, […] in a series of ethanol and incubated in 0.1 M phosphate buffered saline (PBS). Primary antibodies against glial fibrillary acidic protein (GFAP) and proliferating cell nuclear antigen (PCNA) were used to mark reactive glial cells and cells undergoing apoptosis and proliferation, respectively. For antigen unmasking (caspase-3 and PCNA staining), sections were heated in 10 mM sodium citrate buffer (pH 6.0) for 1 min at high power. All sections were pretreated with 1% H2O2 in 50% methanol for 30 min to quench the endogenous peroxidase activity. Then either 1.5% normal horse serum or 2.5% normal sheep serum in PBS was applied for 1 h at room temperature to block nonspecific background staining. […] The number of PCNA positive cells was counted in the subventricular zone and the GFAP positive cells was scored in the cerebral cortex. […] The number of PCNA positive cells was counted in the SVZ and the number of cells was then averaged as cells/mm depending on the length of ventricle wall used for counting (FIG. 19A). […]

[2] = system: hippocampal CA1 neurons of mecp2 null mutant mice; experiment: Dendritic arborization and spine analysis, Golgi staining (Example 9); assay type: in vivo, mouse
Description: We assess the effects of G-2-MePE treatment on dendrites. Transgenic mecp2 knockout mice (n=15 to 20) were administered G-2-MePE intraperitoneally at a dose of 20 mg/kg once daily. Following sacrifice dendritic spine density, spine length and aborization were examined after Golgi staining after nine weeks, as per the Table 1 below:
Dendritic length was assessed by distance from the soma of representative hippocampal CA1 neurons from 9 week old male mecp2 null mutant mice treated with either saline (3 neurons analysed from 3 separate mice, n=9) or G-2-MePE (20 mg/kg i.p. 1/day, from week 4; 3 neurons analysed from 3 separate mice, n=9).

[3] = system: hippocampus slices from MeCP2 deficient mice; experiment: Hippocampal long-term potentiation, fEPSP slope (Example 8); assay type: in vivo, mouse; settings: 20 mg/kg/day i.p. week 4 to 9; vs saline
Text: MeCP2 deficient mice have been previously reported to suffer from functional and ultrastructural synaptic dysfunction, significant impairment of hippocampus-dependent memory and hippocampal long-term potentiation (LTP) (Moretti et al. The Journal of Neuroscience. 2006. 26(1):319-327). To test the effects of the G-2-MePE treatment on synaptic function in the RTT model we compared hippocampal LTP in both vehicle and G-2-MePE treated animals at 9 weeks of age. To do so, we measured the slope of the fEPSP as a % of baseline potential in neurons in slices of hippocampus from MeCP2 deficient mice treated with either saline or G-2-MePE (FIG. 23).

fmr1 knockout mice = experiment: Successive alleys test, fmr1 knockout mice; assay type: in vivo, mouse; settings: 100 mg/kg i.p. 28 days
Description: G-2-MePE was administered at the dose of 100 mg/kg i.p. in 0.1 ml saline, once daily for 28 days. Vehicle-treated animals were injected with 0.1 ml saline daily for 28 days. Thereafter, drug or vehicle treatments were stopped and animals were tested on successive days until all tests were completed. Finally, the animals were sacrificed for determining expression of pAkt and pERK
The successive alleys test was used to assess the effects of G-2-MePE on anxiety in the fmr1 KO mice. The apparatus consists of four successive, increasingly anxiogenic, linearly connected alleys (each succeeding alley is painted a lighter colour, has lower walls and/or is narrower than the previous alley). Animals were placed at the closed end of alley 1, facing the end wall. The latency to first enter each alley, the amount of time spent in each alley, and the number of entries into each alley was recorded during a total test time of 300 s.

In the case of `C[C@@]1(C(=O)N[C@@H](CCC(=O)O)C(=O)O)CCCN1C(=O)CN` [Example G-2-MePE, Glycyl-L-2-methylprolyl-L-glutamic acid] (HELM PEPTIDE1{G.[C[C@@]1(C(=O)[*:2])CCCN1[*:1]].E}$$$$V2.0), the “time at which 50% of the animals survived” value (MeCP2 deficient mice; 20 mg/kg/day i.p. from 4 weeks, saline about 11 weeks) is reported as “about 15 weeks”, the “time to 50 percent death, re-examination with control group re-run” value (MeCP2 deficient mice; 20 mg/kg/day i.p., controls 13.5 weeks) is reported as 16 weeks and the “time to 50 percent death, data initially presented” value (MeCP2 deficient mice; 20 mg/kg/day i.p., untreated 11 weeks) is reported as 16 weeks. For the same compound, the “safety in mecp2 mice” value (MeCP2 deficient mice; mouse, in vivo) was “No safety concerns”, the “number of PCNA positive cells in SVZ” value ([1]; 9 month old rats, 1.2 mg/kg i.p., p<0.005) was “significant increase” and the “number of PCNA positive cells in SVZ” value ([1]; 18 month old rats, single i.p. 12 mg/kg, vs vehicle p<0.05) was “significant increase”. For the same compound, the “dendritic length by distance from the soma” value ([2]; 20 mg/kg i.p. 1/day from week 4, vs saline) was “produced longer dendrites”, the “dendritic arborization and dendritic spine length” value ([2]; 20 mg/kg i.p. once daily, 9 week old mice) was “improved dendritic arborization and increased dendritic spine length” and the “slope of fEPSP (LTP)” value [3] was “increased the slope”. The “pattern of time spent in successive alleys” value (fmr1 knockout mice) was “reinstated the normal pattern of behavior”.
